According to the supplement of paper PMC10011410:
± gives the standard deviation of the averaged measurements.

Key:
U-2 OS [1] = assay: intracellular GSH:GSSG ratio (calculated); higher = more reduced glutathione pool; settings: 24 h
Method in brief: (§1)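 Viability was assessed with CellTiter-Glo, and total glutathione and GSSG with GSH/GSSG-Glo, on separate plates by luminescence. The U-2 OS cells, seeded at 750 per well in white low-volume 384-well plates, were exposed 24 h later to most compounds at 20, 10 and 5 μM in 0.4% DMSO for 24 h at 37 °C. Corrected values from five replicate plates are expressed relative to vehicle or as a GSH:GSSG ratio.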

U-2 OS [2] = assay: cell viability (CellTiter-Glo) relative to DMSO (% of control); higher = more viable; settings: 24 h
Method in brief: as §1

U-2 OS [3] = assay: total intracellular glutathione (GSH + GSSG) relative to DMSO (% of control); higher = more glutathione; settings: 24 h
Method in brief: as §1

U-2 OS [4] = assay: cell painting activity score (Mahalanobis distance from DMSO wells); higher = stronger morphological phenotype; settings: 24 h
Method in brief: (§2)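 In this cell painting assay, roughly 1,500 U-2 OS cells per well in 384-well plates were pin-tool treated at 37 °C for 24 h, typically at six 2-fold steps from 20 μM down to 625 nM. Cells were stained with MitoTracker, concanavalin A, phalloidin, wheat germ agglutinin, Hoechst and SYTO 14, imaged on an Opera Phenix, and analysed in CellProfiler with normalization to same-plate DMSO cells. Reported values are means of four replicate plates, with the activity score defined as the Mahalanobis distance from DMSO wells and cell count defined relative to DMSO wells.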

U-2 OS [5] = assay: relative cell count vs DMSO (cell painting) (fraction of DMSO control); higher = more cells remaining (less cytotoxic); settings: 24 h
Method in brief: as §2

U-2 OS [6] = assay: AUC of culture confluence over time (live-cell imaging) (AUC (confluence % x time)); higher = more confluent culture (less growth inhibition)
Method in brief: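 Using an Incucyte S3 with a 10x objective, confluence of U-2 OS cells was imaged every 4 h for up to 60 h at 37 °C. The cells had been seeded at 750 per well in 384-well plates in F-12K medium with 10% FBS and treated by pin tool 24 h later, most compounds at 20, 10 and 5 μM with 0.2% DMSO. The value given is the area under the confluence-versus-time curve.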

Row | SMILES | intracellular GSH:GSSG ratio (U-2 OS [1]; 5 µM) | intracellular GSH:GSSG ratio (U-2 OS [1]; 10 µM) | intracellular GSH:GSSG ratio (U-2 OS [1]; 20 µM) | cell viability (U-2 OS [2]; 5 µM) | cell viability (U-2 OS [2]; 10 µM) | cell viability (U-2 OS [2]; 20 µM) | total intracellular glutathione (U-2 OS [3]; 5 µM) | total intracellular glutathione (U-2 OS [3]; 10 µM) | total intracellular glutathione (U-2 OS [3]; 20 µM) | cell painting activity score (U-2 OS [4]; 0.625 µM) | cell painting activity score (U-2 OS [4]; 1.25 µM) | cell painting activity score (U-2 OS [4]; 2.5 µM) | cell painting activity score (U-2 OS [4]; 5 µM) | cell painting activity score (U-2 OS [4]; 10 µM) | cell painting activity score (U-2 OS [4]; 20 µM) | relative cell count (U-2 OS [5]; 0.625 µM) | relative cell count (U-2 OS [5]; 1.25 µM) | relative cell count (U-2 OS [5]; 2.5 µM) | relative cell count (U-2 OS [5]; 5 µM) | relative cell count (U-2 OS [5]; 10 µM) | relative cell count (U-2 OS [5]; 20 µM) | AUC of culture confluence over time (U-2 OS [6]; 5 µM) | AUC of culture confluence over time (U-2 OS [6]; 10 µM) | AUC of culture confluence over time (U-2 OS [6]; 20 µM) | intracellular GSH:GSSG ratio (U-2 OS [1]; 40 µM) | cell viability (U-2 OS [2]; 40 µM) | cell viability (U-2 OS [2]; 80 µM) | total intracellular glutathione (U-2 OS [3]; 40 µM) | total intracellular glutathione (U-2 OS [3]; 80 µM) | intracellular GSH:GSSG ratio (U-2 OS [1]; 80 µM) | cell painting activity score (U-2 OS [4]; 40 µM) | cell painting activity score (U-2 OS [4]; 80 µM) | relative cell count (U-2 OS [5]; 40 µM) | relative cell count (U-2 OS [5]; 80 µM) | AUC of culture confluence over time (U-2 OS [6]; 40 µM) | AUC of culture confluence over time (U-2 OS [6]; 80 µM)
1 | CC1(C)CCC2=C(O1)c1ccccc1C(=O)C2=O | 15.5 | 11.1 | 3.75 | 79.8 ± 7.4 | 57 ± 15 | 17 ± 33 | 71.8 ± 4.9 | 56.2 ± 3.8 | 6.31 ± 1.1 | 3.9 | 4.86 | 5.01 | 5.34 | 9.42 | 18.4 | 1.05 | 0.993 | 1.08 | 0.933 | 0.767 | 0.227 | 27 | 19.8 | 20.1 |  |  |  |  |  |  |  |  |  |  |  | 
2 | Oc1cccc(O)c1O | 22.7 | 8.34 | 5.48 | 82.2 ± 6.1 | 35.7 ± 10 | 0.451 ± 0.23 | 82.6 ± 6.4 | 48.8 ± 13 | 3.4 ± 0.69 | 3.4 | 4.83 | 3.93 | 3.87 | 5.49 | 5.54 | 0.96 | 0.998 | 0.978 | 1.02 | 0.974 | 0.973 | 46.4 | 48 | 38.4 | 1.66 | 0.221 ± 0.03 | 0.263 ± 0.059 | 2.67 ± 0.16 | 2.53 ± 0.23 |  |  |  |  |  |  | 
3 | CC[C@]1(O)C[C@@H]2CN(CCc3c([nH]c4ccccc34)[C@@](C(=O)OC)(c3cc4c(cc3OC)N(C)[C@H]3[C@@](O)(C(=O)OC)[C@H](OC(C)=O)[C@]5(CC)C=CCN6CC[C@]43[C@@H]65)C2)C1 | 2.94 | 2.94 | 2.96 | 58.9 ± 5.4 | 57.8 ± 8.9 | 57.7 ± 2.6 | 60.6 ± 2.1 | 61.6 ± 7.3 | 60.5 ± 3.1 | 27.2 | 24.9 | 24.9 | 24.2 | 24.4 | 24.4 | 0.236 | 0.246 | 0.221 | 0.223 | 0.24 | 0.255 | 18.2 | 17.6 | 20 |  |  |  |  |  |  |  |  |  |  |  | 
4 | COc1ccc(N(C(=O)CCl)C(C(=O)NCCc2ccccc2)c2cccs2)cc1Cl (stereo unspecified) | 4.03 | 5.85 |  | 64.5 ± 5.7 | 36.8 ± 12 | 8.23 ± 3.5 | 49.1 ± 4.8 | 23.5 ± 6.2 | 2.61 ± 0.21 | 9.81 | 11 | 11.4 | 14.4 | 32.8 | 32.2 | 0.916 | 0.7 | 0.657 | 0.209 | 0.198 | 0.29 | 15.9 | 17.6 | 16.4 |  |  |  |  |  |  |  |  |  |  |  | 
5 | Cc1cc2c(C(C)C)c(O)c(O)c(C=O)c2c(O)c1-c1c(C)cc2c(C(C)C)c(O)c(O)c(C=O)c2c1O | 16.4 | 15.8 | 7.02 | 96.4 ± 1.8 | 88.1 ± 5.2 | 68.2 ± 2.1 | 92.2 ± 3.2 | 70 ± 4.9 | 63.3 ± 3.2 | 3.83 | 4.24 | 4.3 | 5.05 | 15.5 | 17.8 | 1.09 | 1.1 | 1.09 | 1.02 | 0.937 | 0.551 | 48.5 | 36.2 | 32.6 | 3.8 | 42.7 ± 11 | 5.12 ± 1.6 | 62.8 ± 3.7 | 18.2 ± 4.2 | 1.25 | 22.1 | 24.1 | 0.246 | 0.261 | 18.2 | 18.5
6 | O=C(O[C@@H]1Cc2c(O)cc(O)cc2O[C@@H]1c1cc(O)c(O)c(O)c1)c1cc(O)c(O)c(O)c1 | 24.8 | 18.8 | 11.4 | 98.8 ± 3.2 | 97.6 ± 4.7 | 69.1 ± 19 | 96 ± 2.7 | 102 ± 5.6 | 63.7 ± 3.8 | 3.76 | 4.88 | 4.25 | 4.82 | 5.68 | 10.4 | 0.966 | 1 | 0.981 | 0.96 | 0.989 | 0.897 | 48.7 | 49.6 | 48.6 | 14 | 83 ± 14 | 43.2 ± 2.7 | 77.8 ± 5.7 | 53.9 ± 4.4 | 12 | 4.51 | 14.8 | 0.843 | 0.466 | 41.4 | 28.3
7 | Cn1c(SC2=CS(=O)(=O)c3ccccc32)nnc1-c1ccc(O)cc1 | 10.2 | 4.41 | 2.8 | 96.8 ± 4.4 | 66 ± 4.1 | 71.2 ± 4.6 | 113 ± 51 | 82.1 ± 41 | 48.7 ± 27 | 6.03 | 8.31 | 10.7 | 13.1 | 16.2 | 13.2 | 0.933 | 0.993 | 0.903 | 0.761 | 0.527 | 0.379 | 22.8 | 21.2 | 22.3 |  |  |  |  |  |  |  |  |  |  |  | 
